We go through 16 compounds from ChEMBL document CHEMBL1148684, “Benzimidazole-2-carboxamides as novel NR2B selective NMDA receptor antagonists” (Bioorg Med Chem Lett, 2006).

The target in experiment [1] is Glutamate receptor ionotropic, NMDA 2B (Rattus norvegicus, UniProt Q00960). In words: Displacement of [3H]Ro25-6981 from NR2B NMDA receptor in rat forebrain membrane. In kind it is cell membranes.
The next experiment concerns the target Glutamate NMDA receptor. In words: Inhibition of NMDA-evoked increase in intracellular calcium ion in rat cortical cells. Format: functional, cell-based.
The subject of another experiment is Mus musculus. In words: Analgesic activity against formalin-induced persistent pain in orally dosed NMRI mouse assessed as decrease in licking time relative to control. In kind it is functional. Particulars: po.
In experiment [2] the target is Glutamate NMDA receptor; GRIN1/GRIN2A (Homo sapiens) (UniProt Q05586+Q12879). In words: Inhibition of NMDA-evoked current in EcR293 cells transfected with NR1/NR2A upto 10 uM by patch clamp method. The note with it: HEK293. Format: functional, cell-based. (In general: The patch-clamp technique gives a direct electrical read-out from membranes.)
Experiment [3] is described as follows: Inhibition of NMDA-evoked current in EcR293 cells transfected with NR1/NR2D upto 10 uM by patch clamp method. In kind it is functional, HEK293.

Sequence of Glutamate receptor ionotropic, NMDA 2B (Q00960 whole entry): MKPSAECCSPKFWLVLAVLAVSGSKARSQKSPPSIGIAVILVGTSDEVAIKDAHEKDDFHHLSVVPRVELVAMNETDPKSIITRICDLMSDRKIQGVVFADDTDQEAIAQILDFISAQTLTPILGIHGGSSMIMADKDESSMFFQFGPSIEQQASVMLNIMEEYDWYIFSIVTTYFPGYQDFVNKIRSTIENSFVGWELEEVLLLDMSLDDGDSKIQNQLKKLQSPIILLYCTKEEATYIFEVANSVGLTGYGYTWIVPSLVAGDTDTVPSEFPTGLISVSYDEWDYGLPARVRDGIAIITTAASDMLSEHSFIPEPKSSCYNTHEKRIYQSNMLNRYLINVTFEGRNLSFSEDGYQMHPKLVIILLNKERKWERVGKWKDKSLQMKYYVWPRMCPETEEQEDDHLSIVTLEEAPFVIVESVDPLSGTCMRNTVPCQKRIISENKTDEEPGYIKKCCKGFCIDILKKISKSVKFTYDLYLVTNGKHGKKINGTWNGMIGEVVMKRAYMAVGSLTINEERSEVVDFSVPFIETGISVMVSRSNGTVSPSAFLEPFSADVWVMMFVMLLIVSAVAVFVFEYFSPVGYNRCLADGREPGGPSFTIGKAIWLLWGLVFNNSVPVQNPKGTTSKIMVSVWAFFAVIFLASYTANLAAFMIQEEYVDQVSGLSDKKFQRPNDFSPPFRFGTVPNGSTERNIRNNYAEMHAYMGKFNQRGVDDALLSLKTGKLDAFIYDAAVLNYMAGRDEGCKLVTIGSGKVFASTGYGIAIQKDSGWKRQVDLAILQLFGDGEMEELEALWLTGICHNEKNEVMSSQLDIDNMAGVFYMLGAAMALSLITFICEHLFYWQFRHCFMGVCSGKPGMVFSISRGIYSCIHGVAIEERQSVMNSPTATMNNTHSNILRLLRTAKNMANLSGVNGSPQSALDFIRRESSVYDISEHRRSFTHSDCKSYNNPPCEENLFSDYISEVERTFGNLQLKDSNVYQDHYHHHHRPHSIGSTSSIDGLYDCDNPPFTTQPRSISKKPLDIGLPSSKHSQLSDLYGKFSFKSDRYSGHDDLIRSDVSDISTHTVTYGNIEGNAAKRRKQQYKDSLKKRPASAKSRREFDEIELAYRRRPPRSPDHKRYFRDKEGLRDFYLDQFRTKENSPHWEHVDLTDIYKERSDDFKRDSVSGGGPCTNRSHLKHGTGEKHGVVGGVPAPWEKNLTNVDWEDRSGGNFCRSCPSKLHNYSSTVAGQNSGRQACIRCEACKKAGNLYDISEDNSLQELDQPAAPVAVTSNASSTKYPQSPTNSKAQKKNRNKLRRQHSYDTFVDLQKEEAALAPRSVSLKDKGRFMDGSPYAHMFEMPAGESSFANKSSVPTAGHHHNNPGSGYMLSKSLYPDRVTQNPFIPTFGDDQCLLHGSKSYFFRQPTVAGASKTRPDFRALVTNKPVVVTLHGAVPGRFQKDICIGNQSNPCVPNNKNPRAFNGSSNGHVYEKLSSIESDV

For the compound `O=C(c1nc2ccc(O)cc2[nH]1)N1CCC(Cc2cccc(F)c2)CC1`, the IC50 – broadly, the concentration needed to halve the response being measured – in experiment [1] was found to be 5.2 nM; at Glutamate NMDA receptor, 6 nM.

As to `C[C@@H](CN1CCC(Cc2ccccc2)CC1)[C@@H](O)c1ccc(O)cc1`, the IC50 in experiment [1] stood at 6 nM; at Glutamate NMDA receptor, 159 nM.

With `COc1cccc(CC2CCN(C(=O)c3nc4ccc(O)cc4[nH]3)CC2)c1`, the IC50 in experiment [1] came to 3.2 nM; at Glutamate NMDA receptor, 2.5 nM.

Turning to `Cc1ccc(CC2CCN(C(=O)c3nc4ccc(O)cc4[nH]3)CC2)cc1`, the IC50 came to 4.4 nM in experiment [1] and 8.7 nM on Glutamate NMDA receptor.

For the compound `O=C(c1nc2ccc(O)cc2[nH]1)N1CCC(Cc2ccc(F)cc2)CC1`, the IC50 in experiment [1] came out at 4 nM; at Glutamate NMDA receptor, 1.2 nM.

`Nc1ccc2[nH]c(C(=O)N3CCC(Cc4ccccc4)CC3)nc2c1`: the IC50 in experiment [1] was 143 nM; at Glutamate NMDA receptor, 40 nM.

Take `O=C(c1nc2c(O)cccc2[nH]1)N1CCC(Cc2ccccc2)CC1`: the IC50 was found to be 10 nM in experiment [1] and 3 nM on Glutamate NMDA receptor.

For the compound `Cc1cccc(CC2CCN(C(=O)c3nc4ccc(O)cc4[nH]3)CC2)c1`, the figures for the IC50 (in experiment [1]; at Glutamate NMDA receptor) were 5 nM and 2.4 nM, respectively.

`O=C(c1nc2ccc(O)cc2[nH]1)N1CCC(Oc2ccc(F)cc2)CC1`: the IC50 in experiment [1] was found to be 6 nM; at Glutamate NMDA receptor it was 2.9 nM.

Compound `O=C(c1nc2ccc(O)cc2[nH]1)N1CCC(Cc2ccccc2)CC1` showed a 50% inhibitory concentration (IC50) in experiment [1] of 4 nM. The ED50 (usually the dose that gives a 50% effect, or the effect in half of the subjects) with Mus musculus was determined as 1.6 mg/kg. Besides, in experiment [2], the inhibition – broadly, the relative decrease from the control value, in per cent – was less than 20%. Further, in experiment [3], the Inhibition – broadly, the share of the control response that was lost under treatment – was less than 20%.

For the compound `O=C(c1nc2ccc(O)cc2[nH]1)N1CCC(Oc2ccc(Cl)cc2)CC1`, the concentration for half-maximal inhibition (IC50) in experiment [1] came out at 14 nM; at Glutamate NMDA receptor, 1.7 nM.

For `CS(=O)(=O)Nc1ccc2nc(CN3CCC(Cc4ccccc4)CC3)[nH]c2c1`, the values for the IC50 (in experiment [1]; at Glutamate NMDA receptor) were 3.5 nM and 8.6 nM, respectively.

Turning to `CS(=O)(=O)Nc1ccc2[nH]c(C(=O)N3CCC(Cc4ccccc4)CC3)nc2c1`, the values for the IC50 (in experiment [1]; at Glutamate NMDA receptor) were 3 nM and 1.3 nM, respectively.

In the case of `Cc1ccccc1CC1CCN(C(=O)c2nc3cc(O)ccc3[nH]2)CC1`, the IC50 in experiment [1] was 8.4 nM; on Glutamate NMDA receptor it was 12 nM.

As for `O=c1[nH]c2ccc([S+]([O-])CCN3CCC(Cc4ccc(F)cc4)CC3)cc2o1` (centres undefined) [BESONPRODIL], the IC50 in experiment [1] amounted to 4 nM; at Glutamate NMDA receptor, 6.6 nM.

For the compound `Cc1ccc(OC2CCN(C(=O)c3nc4ccc(O)cc4[nH]3)CC2)cc1`, the IC50 turned out to be 3 nM in experiment [1] and 1.1 nM at Glutamate NMDA receptor.
